Values quoted from earlier work in US20040019101A1, “Methods of treating gastrointestinary and genitourinary pain disorders” (priority 2002, published 2004).

Assays:
[1] = tested on: monoamine neurotransmitter uptake
irritable bowel syndrome = details: in vivo
orocecal transit = details: healthy subjects or IBS patients
dopamine reuptake = details: compared with serotonin and norepinephrine uptake
histaminergic receptors = details: in vitro
adrenergic receptors = details: in vitro

## CN(C)CC(c1ccc(O)cc1)C1(O)CCCCC1 (centres unmarked) [O-desmethyl venlafaxine, 1-[(2-dimethylamino)-1-(4-hydoxyphenyl)ethyl]cyclohexanol]
[1]
  inhibition of monoamine neurotransmitter uptake: potent inhibitors

## CN(C)CCC=C1c2ccccc2CCc2ccccc21 [amytriptiline]
Irritable bowel syndrome
  efficacy in treatment of irritable bowel syndrome: efficacious

## CN(C)CCC=C1c2ccccc2COc2ccccc21 [doxepin]
Irritable bowel syndrome
  efficacy in treatment of irritable bowel syndrome: efficacious

## CN(C)CCCN1c2ccccc2CCc2ccccc21 [imipramine]
Irritable bowel syndrome
  efficacy in treatment of irritable bowel syndrome: efficacious
Orocecal transit
  effect on orocecal transit: prolong orocecal transit

## COc1ccc(C(CN(C)C)C2(O)CCCCC2)cc1 (centres unmarked) [venlafaxine, 1-[2-(dimethylamino)-1-(4-methoxyphenyl)ethyl] cyclohexanol]
[1]
  inhibition of monoamine neurotransmitter uptake: potent inhibitors
Norepinephrine uptake
  inhibition of norepinephrine uptake: potent inhibition
Dopamine reuptake
  inhibition of dopamine reuptake: To a lesser degree
Monoamine oxidase
  inhibitory activity on monoamine oxidase: no inhibitory activity
Histaminergic receptors
  affinity for histaminergic receptors: virtually no affinity
Adrenergic receptors
  affinity for adrenergic receptors: virtually no affinity
